{
  "source": "ChEMBL document CHEMBL4118279",
  "about": "“1,3-Di(quinolin-2-yl)guanidine binds to GGCCCC hexanucleotide repeat DNA in C9ORF72” (Bioorg Med Chem Lett, 2018)",
  "key": {"[1]": {"assay": "Binding affinity to GGCCCC/GGCCCC motif-containing duplex DNA (unknown origin) assessed as change in melting temperature at 20 uM by UV-spectrophotometric method"}, "[2]": {"assay": "Binding affinity to GGAACC/GGAACC motif-containing duplex DNA (unknown origin) assessed as change in melting temperature at 20 uM by UV-spectrophotometric method"}, "[3]": {"assay": "Binding affinity to GGTTCC/GGTTCC motif-containing duplex DNA (unknown origin) assessed as change in melting temperature at 20 uM by UV-spectrophotometric method"}, "[4]": {"assay": "Binding affinity to GGGGCC/GGGGCC motif-containing duplex DNA (unknown origin) assessed as change in melting temperature at 20 uM by UV-spectrophotometric method"}, "[5]": {"assay": "Binding affinity to GGCCCC/GGGGCC motif-containing duplex DNA (unknown origin) assessed as change in melting temperature at 20 uM by UV-spectrophotometric method"}, "[6]": {"assay": "Binding affinity to GGCCCC/GGCCCC motif-containing duplex DNA (unknown origin) assessed as formation of CD bands at 20 uM at 310 to 345 nm by CD spectrometry"}, "[7]": {"assay": "Binding affinity to GGCCC/GGCCC motif-containing duplex DNA (unknown origin) assessed as change in melting temperature at 20 uM by UV-spectrophotometric method"}, "[8]": {"assay": "Binding affinity to GGTCCC/GGCCCC motif-containing duplex DNA (unknown origin) assessed as formation of CD bands at 20 uM at 300 to 345 nm by CD spectrometry"}, "[9]": {"assay": "Binding affinity to GGCTCC/GGCCCC motif-containing duplex DNA (unknown origin) assessed as formation of CD bands at 20 uM at 310 to 345 nm by CD spectrometry"}, "[10]": {"assay": "Binding affinity to GGTCCC/GGTCCC motif-containing duplex DNA (unknown origin) assessed as formation of CD bands at 20 uM at 310 to 345 nm by CD spectrometry"}, "[11]": {"assay": "Binding affinity to GGTCCC/GGCCCC motif-containing duplex DNA (unknown origin) assessed as change in melting temperature at 20 uM by UV-spectrophotometric method"}, "[12]": {"assay": "Binding affinity to GGCTCC/GGCCCC motif-containing duplex DNA (unknown origin) assessed as change in melting temperature at 20 uM by UV-spectrophotometric method"}, "[13]": {"assay": "Binding affinity to GGTCCC/GGCTCC motif-containing duplex DNA (unknown origin) assessed as change in melting temperature at 20 uM by UV-spectrophotometric method"}, "[14]": {"assay": "Binding affinity to GGTCCC/GGTCCC motif-containing duplex DNA (unknown origin) assessed as change in melting temperature at 20 uM by UV-spectrophotometric method"}, "[15]": {"assay": "Binding affinity to GGTTCC/GGCCCC motif-containing duplex DNA (unknown origin) assessed as change in melting temperature at 20 uM by UV-spectrophotometric method"}, "[16]": {"assay": "Binding affinity to GGCTCC/GGCTCC motif-containing duplex DNA (unknown origin) assessed as change in melting temperature at 20 uM by UV-spectrophotometric method"}, "[17]": {"assay": "Binding affinity to GGCCCC/GGCCCC motif-containing duplex DNA (unknown origin) at 40 uM by ESI-TOF-MS analysis"}, "[18]": {"assay": "Binding affinity to GGCCCC/GGCCCC motif-containing duplex DNA (unknown origin) at 80 uM by ESI-TOF-MS analysis"}, "[19]": {"assay": "Binding affinity to GGCCCC/GGGGCC motif-containing duplex DNA (unknown origin) at 40 uM by ESI-TOF-MS analysis"}, "[20]": {"assay": "Binding affinity to (GGCCCC)9 motif-containing duplex DNA (unknown origin) assessed as melting temperature at 20 uM by UV-spectrophotometric method"}, "[21]": {"assay": "Binding affinity to (GGCCCC)9 motif-containing duplex DNA (unknown origin) assessed as formation of CD bands at 20 uM at 245 to 282 nm by CD spectrometry"}, "[22]": {"assay": "Binding affinity to (GGCCCC)5 motif-containing duplex DNA (unknown origin) at 80 uM by ESI-TOF-MS analysis"}},
  "note": "Activity calls are given as the source filed them. The calls are words filed in the database; no cut-off is given here.",
  "data": [
    {"compound": "N=C(N)Nc1ccc2ccccc2n1", "values": [
      {"measurement": "ΔTm", "setting": "[1]", "value": 3.4, "unit": "°C"},
      {"measurement": "ΔTm", "setting": "[2]", "value": -0.5, "unit": "°C"},
      {"measurement": "ΔTm", "setting": "[3]", "value": -1.3, "unit": "°C"},
      {"measurement": "ΔTm", "setting": "[4]", "value": -0.7, "unit": "°C"},
      {"measurement": "ΔTm", "setting": "[5]", "value": -2.8, "unit": "°C"},
      {"measurement": "Activity", "setting": "[6]", "value": "Active"}
    ]},
    {"compound": "N=C(Nc1ccc2ccccc2n1)Nc1ccc2ccccc2n1", "values": [
      {"measurement": "ΔTm", "setting": "[1]", "value": 19.6, "unit": "°C"},
      {"measurement": "ΔTm", "setting": "[2]", "value": 2.1, "unit": "°C"},
      {"measurement": "ΔTm", "setting": "[3]", "value": -0.1, "unit": "°C"},
      {"measurement": "ΔTm", "setting": "[4]", "value": 0.7, "unit": "°C"},
      {"measurement": "ΔTm", "setting": "[5]", "value": -1, "unit": "°C"},
      {"measurement": "ΔTm", "setting": "[7]", "value": 7.8, "unit": "°C"},
      {"measurement": "Activity", "setting": "[6]", "value": "Active"},
      {"measurement": "Activity", "setting": "[8]", "value": "Active"},
      {"measurement": "Activity", "setting": "[9]", "value": "inactive"},
      {"measurement": "Activity", "setting": "[10]", "value": "inactive"},
      {"measurement": "ΔTm", "setting": "[11]", "value": 14.4, "unit": "°C"},
      {"measurement": "ΔTm", "setting": "[12]", "value": 11.2, "unit": "°C"},
      {"measurement": "ΔTm", "setting": "[13]", "value": 8.9, "unit": "°C"},
      {"measurement": "ΔTm", "setting": "[14]", "value": 11.5, "unit": "°C"},
      {"measurement": "ΔTm", "setting": "[15]", "value": 8.6, "unit": "°C"},
      {"measurement": "ΔTm", "setting": "[16]", "value": 8.3, "unit": "°C"},
      {"measurement": "Activity", "setting": "[17]", "value": "Active"},
      {"measurement": "Activity", "setting": "[18]", "value": "Active"},
      {"measurement": "Activity", "setting": "[19]", "value": "inactive"},
      {"measurement": "Tm", "setting": "[20]", "value": 67.8, "unit": "°C"},
      {"measurement": "Activity", "setting": "[21]", "value": "Active"},
      {"measurement": "Activity", "setting": "[22]", "value": "Active"}
    ]}
  ]
}
